Reference: patent US20190352329A1, “BETA-ADRENERGIC BLOCKING COMPOUND” (KING SAUD UNIVERSITY, priority 2018, published 2019)

Legend:
beta adrenergic receptor = beta adrenergic receptor (Cavia porcellus, UniProt H0W3H1); test: Blockade of isoprenaline inotropic effect in electrically driven guinea pig left atrium; assay type: cell-based; conditions: result in words
Description: Data are expressed as means±s. e. mean. IC50s for each drug were estimated through non-linear regression analysis using ISI software for a PC computer. Differences between non paired groups were compared by Student's t-test or ANOVA test with the statistical programme Stat works TM; a value of P equal or smaller than 0.05 was taken as the limit of statistical significance.
To test beta adrenergic receptor blocking effects of compounds 3a and 3b, their actions on the inotropic effects of the beta receptor agonist isoprenaline of the guinea pig left atrium were studied.
Male guinea-pigs weighing 300±400 g were killed by a blow on the head. The heart was quickly removed and placed in oxygenated Krebs-bicarbonate solution. The left atrium was carefully dissected and placed between bipolar platinum electrodes. The base of the atrium was tied to one of the electrodes and the tip to an isometric transducer connected to an amplifier and recorder (Cibertec, Madrid, Spain), with 1 g baseline tension. […]
This concentration was selected because it produced a submaximal and measurable inotropic effect that was reproducible after 7^−1° additions of isoprenaline, given at 30-min intervals. […] Each individual preparation served to provide a full concentration-response curve for a given compound, and from it IC50 was calculated.

[1] = 6-week application, daily dose of 60 mg/kg b.w., i.p.; cited from earlier work

Chain of beta adrenergic receptor (H0W3H1 1-470): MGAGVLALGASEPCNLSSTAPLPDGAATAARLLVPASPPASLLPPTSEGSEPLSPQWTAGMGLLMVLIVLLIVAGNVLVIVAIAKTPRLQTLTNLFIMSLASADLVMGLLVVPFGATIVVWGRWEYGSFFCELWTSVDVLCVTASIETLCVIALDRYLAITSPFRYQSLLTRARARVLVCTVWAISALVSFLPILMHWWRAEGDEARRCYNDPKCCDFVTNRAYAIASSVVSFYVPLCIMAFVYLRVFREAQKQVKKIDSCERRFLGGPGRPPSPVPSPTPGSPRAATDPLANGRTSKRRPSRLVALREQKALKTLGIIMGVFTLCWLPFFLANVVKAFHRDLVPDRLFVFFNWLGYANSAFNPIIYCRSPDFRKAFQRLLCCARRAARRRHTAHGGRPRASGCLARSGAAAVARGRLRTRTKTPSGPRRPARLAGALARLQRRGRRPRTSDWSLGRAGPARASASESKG

| Compound | blockade of the isoprenaline inotropic response (beta adrenergic receptor) | direct cardiac effect (heart rate decrease) [1] |
| --- | --- | --- |
| COC(=O)C12CCC(C)C(C)C1C1=CCC3C4(C)CCC(OCC(O)CNC(C)C)C(C)(C)C4CCC3(C)C1(C)CC2 (stereo not drawn) [Compound 3a, methyl 3-β-[2-hydroxy-3-(isopropylamino)propoxy]-urs-12-en-28-oate] | blocked the isoprenaline inotropic response almost fully | – |
| COC(=O)C12CCC(C)C(C)C1C1=CCC3C4(C)CCC(OCC(O)CNCC(C)C)C(C)(C)C4CCC3(C)C1(C)CC2 (stereo not drawn) [Compound 3b, methyl-3-β-[2-hydroxy-3-(isobutylamino)propoxy]-urs-12-en-28-oate] | blocked the isoprenaline inotropic response almost fully | – |
| CC1(C)CC[C@]2(C(=O)O)CC[C@]3(C)C(=CC[C@@H]4[C@@]5(C)CC[C@H](O)C(C)(C)[C@@H]5CC[C@]43C)[C@@H]2C1 [Oleanolic] | – | 34% |
